Patent publication US5219879A, “Heterocyclic steroid compounds” (Du Pont Merck Pharmaceutical Company, priority 1991, dated 1993)

test system: 3-Hydroxy-3-Methylglutaryl Coenzyme A Reductase (HMGR); assay: 3-Hydroxy-3-Methylglutaryl Coenzyme A Reductase (HMGR) Suppression Assay; format: cell-based, Chinese Hamster (CHO cells); conditions: CHO cells, 6 hr. at 37°; read-out: IC50 (amount of compound required to suppress HMGR activity by 50% relative to controls)
Description: The ability of the compounds of Formula I to suppress the activity of HMGR, the rate limiting enzyme of cholesterol biosynthesis, was tested as follows.
Chinese Hamster Ovary (CHO) cells were divided twice weekly and were maintained in McCoy's 5A medium supplemented with 1% carbosil delipidated Fetal Bovine System (FBS) (obtained from Gibco Laboratories, Chagrin Falls, Ohio). Cells were harvested during the logarithmic phase of growth and cell cultures were prepared by adding […] cells to each well in a 24 well cluster dish (obtained from Costar, Data Packaging Corp., Cambridge, Mass.) employing 1 ml of the above medium per each well. […] Control cells were treated in an identical fashion to those which received test compound, except they were incubated with the BSA and ethanol suspension only.
Specifically, the medium in each well was aspirated and the cells rinsed with a 50 mM solution of phosphate buffered saline (PBS). One ml of 30 mg/ml of digitonin in CSK buffer (prepared using 10 mM Pipes [piperazine-N,N'-bis (2-ethansulfonic) acid], 100 mM KCl, 2.5 mM MgCl2, 300 mM sucrose, 1 mM EGTA, pH 6.8) was added to each well and incubated for 10 min. at 22° to permeabilize the cells. The buffer was carefully aspirated and the wells were rinsed twice each time with 1 ml of PBS. HMGR activity was measured directly by adding 75 ml of PIB buffer (50 mM potassium phosphate, 1 mM Na2 EDTA, 10 mM dithiothreitol, pH 7.4) to each well and incubating the cells for 30 minutes at 37° as described above. […] The assay mixture was incubated for 30 min. at 37° and terminated by the addition of 70 ml of [^3 H]-mevalonicacid (35,000 DPM/assay), 0.15 mg/ml in 3N HCl.
The reaction was left to lactonize for an additional 30 min. at 37° or overnight at room temperature.
Reaction products were separated by thin layer chromatography on silica gel G (obtained from Analtech, Newark, Del.) developed in an unsaturated environment with acetone:benzene (3:2, v:v). The band corresponding to mevalonolactone was identified by exposure to iodine vapor and was scraped into counting vials. The extent of conversion of starting substrate, HMG-CoA, to mevalonic acid was determined by liquid scintillation counting in Biofluor (obtained from New England Nuclear, Boston, Mass.). Corrections for recovery and blank values were made for each sample. Protein determinations were made by Bio-Rad (Bio-Rad, Richmond, Calif.) dye binding assay according to the manufacturer's instruction using bovine serum albumin as standard. Cellular protein was solubilized from culture dishes by the addition of 20 μl of 16N KOH and assayed directly for protein amount. Suppression values are expressed as the amount of compound required to suppress HMGR activity by 50% relative to that of the controls.

Going from `CC(C)CCC[C@@H](C)[C@H]1CO[C@H]2C3=C(CC[C@]12C)[C@@]1(C)CC[C@H](O)C(C)(C)[C@@H]1CC3` [Example 2, 4,4-Dimethyl-15-oxa-5a-cholest-8-en-3b-ol] to `CC(C)CCC[C@@H](C)[C@H]1CCO[C@H]2C3=C(CC[C@]12C)[C@@]1(C)CC[C@H](O)C(C)(C)[C@@H]1CC3` [Example 673, 4,4-dimethyl-14a-Oxa-D-homo-5a-cholest-8-en-3b-ol], the IC50 rises from 300 nM to 1460 nM (4.9-fold).

First: CC(C)CCC[C@@H](C)[C@H]1CCS[C@@]2(C)C3=C(CC[C@]12C)[C@@]1(C)CC[C@H](O)C(C)(C)[C@@H]1CC3 [Example 1508]
Second: CC(C)CCC[C@@H](C)[C@H]1CS[C@@]2(C)C3=C(CC[C@]12C)[C@@]1(C)CC[C@H](O)C(C)(C)[C@@H]1CC3 [Example 857]
The IC50 of the first is 21-fold higher: 1250 nM for the first, 60 nM for the second. The second is the more potent here.

Going from `C=C[C@@]12OC[C@H]([C@H](C)CCCC(C)C)[C@@]1(C)CCC1=C2CC[C@H]2C(C)(C)[C@@H](O)CC[C@]12C` [Example 3, 4,4-Dimethyl-15-oxa-14a-vinyl-5a-cholest-8-en-3b-ol] to `CC(C)CCC[C@@H](C)[C@H]1CO[C@@]2(C=O)C3=C(CC[C@]12C)[C@@]1(C)CC[C@H](O)C(C)(C)[C@@H]1CC3` [Example 7, 15-Oxa 32-oxodihydrolanosterol], the IC50 falls from 170 nM to 40 nM (4.2-fold). The second is the more potent here.

First: CC(C)CCC[C@@H](C)[C@H]1CO[C@@]2(C=NO)C3=C(CC[C@]12C)[C@@]1(C)CC[C@H](O)C(C)(C)[C@@H]1CC3 [Example 10, 3b-Hydroxy-15-oxa-lanost-8-en-32-aldoxime]
Second: CC(C)CCC[C@@H](C)[C@H]1CO[C@@]2(CO)C3=C(CC[C@]12C)[C@@]1(C)CC[C@H](O)C(C)(C)[C@@H]1CC3 [Example 8, 15-Oxa-lanost-8-ene-3b,32-diol]
The IC50 of the first is 12-fold lower: 200 nM for the first, 2500 nM for the second.

`CC(C)CCC[C@@H](C)[C@H]1CO[C@@]2([C@H](O)CO)C3=C(CC[C@]12C)[C@@]1(C)CC[C@H](O)C[C@@H]1CC3` [Example 16] and `CC(C)CCC[C@@H](C)[C@H]1CO[C@@]2([C@@H](O)CO)C3=C(CC[C@]12C)[C@@]1(C)CC[C@H](O)C[C@@H]1CC3` [Example 17] are within 1.5-fold of each other in IC50: 2500 nM for the first, 1950 nM for the second.

`CC(C)CCC[C@@H](C)[C@H]1CO[C@@]2(C=O)C3=C(CC[C@]12C)[C@@]1(C)CCC(=O)C(C)(C)[C@@H]1CC3` [Example 386] and `CC(=O)O[C@H]1CC[C@]2(C)C3=C(CC[C@H]2C1(C)C)[C@]1(C=O)OC[C@H]([C@H](C)CCCC(C)C)[C@@]1(C)CC3` [Example 6, 3b-Acetoxy-15-oxa-32-oxolanost-8-ene] are within 1.5-fold of each other in IC50: 80 nM for the first, 75 nM for the second.

First: CC(C)CCC[C@@H](C)[C@H]1CO[C@@]2(C=O)C3=C(CC[C@]12C)[C@@]1(C)CC[C@H](O)C[C@@H]1CC3 [Example 18]
Second: CC(C)CCC[C@@H](C)[C@H]1CO[C@@]2(C)C3=C(CC[C@]12C)[C@@]1(C)CC[C@H](O)C[C@@H]1CC3 [Example 13, 14a-Methyl-15-oxa-5a-cholest-8-en-3b-ol]
The IC50 of the first is 8.3-fold lower: 300 nM for the first, 2500 nM for the second. The first is the more potent here.

Going from `CC(C)CCC[C@@H](C)[C@H]1CCS[C@H]2C3=C(CC[C@]12C)[C@@]1(C)CC[C@H](O)C(C)(C)[C@@H]1CC3` [Example 1509, 4,4-Dimethyl-15-thia-D-homo-5a-cholest-8-en-3b-ol] to `CC(C)CCC[C@@H](C)[C@H]1CS[C@H]2C3=C(CC[C@]12C)[C@@]1(C)CC[C@H](O)C(C)(C)[C@@H]1CC3` [Example 858, 4,4-Dimethyl-15-thia-5a-cholest-8-en-3b-ol], the IC50 falls from 5000 nM to 550 nM (9.1-fold). The second is the more potent here.

Going from `CC(C)CCC[C@@H](C)[C@H]1CCO[C@@]2(C=O)C3=C(CC[C@]12C)[C@@]1(C)CC[C@H](O)C(C)(C)[C@@H]1CC3` [Example 677, 14a-Oxa-32-oxo-D-homo-dihydrolanosterol] to `C=C[C@@]12SC[C@H]([C@H](C)CCCC(C)C)[C@@]1(C)CCC1=C2CC[C@H]2C(C)(C)[C@@H](O)CC[C@]12C` [Example 859, 4,4-Dimethyl-15-thia-14a-vinyl-5a-cholest-8-en-3b-ol], the IC50 falls from 2500 nM to 60 nM (42-fold).

First: CC(C)CCC[C@@H](C)[C@H]1C[S+]([O-])[C@@]2(C)C3=C(CC[C@]12C)[C@@]1(C)CC[C@H](O)C(C)(C)[C@@H]1CC3 (some centres unmarked) [Example 1303]
Second: CC(C)CCC[C@@H](C)[C@H]1CO[C@@]2(CO)C3=C(CC[C@]12C)[C@@]1(C)CC[C@H](O)C[C@@H]1CC3 [Example 19]
The IC50 of the first is 6.9-fold lower: 300 nM for the first, 2080 nM for the second.

same assay, conditions: CHO cells, tested under these same conditions

`CC(C)=CCC[C@@H](C)[C@H]1CC[C@@]2(C)C3=C(CC[C@]12C)[C@@]1(C)CC[C@H](O)C(C)(C)[C@@H]1CC3` [lanosta-8,24-diene-3b-ol, reference compound] was tested, and the “effect on measured HMGR activity” value was “without effect”.
`CC(C)CCC[C@@H](C)[C@H]1CC[C@H]2[C@@H]3CC=C4C[C@@H](O)CC[C@]4(C)[C@H]3CC[C@]12C` [cholesterol, reference compound] was tested, and the “effect on measured HMGR activity” value was “without effect”.
For `CC(C)CCC[C@@H](C)[C@H]1CC[C@@]2(C)C3=C(CC[C@]12C)[C@@]1(C)CC[C@H](O)C(C)(C)[C@@H]1CC3` [lanost-8-en-3b-ol, reference compound], the “effect on measured HMGR activity” value was “without effect”.

test system: cholesterol biosynthesis pathway; assay: Assay of 14C-Acetate Incorporation into the Biosynthesis of Cholesterol (HepG2 cells); format: cell-based; conditions: Homo sapiens, 22 hours with test compound, then 14C-acetate for additional 2 hours, read-out: IC50, inhibition of the incorporation of 14C-acetate into the cholesterol biosynthesis pathway
Description: The HepG2 cells (a human hepatoma cell line) used in this example were obtained from the American Type Culture Collection (ATCC, Rockville, Md.). They were maintained in Dulbecco's Modified Eagles Medium and Ham's F12 Medium (1:1) supplemented with 10% heat inactivated Fetal Bovine serum, […] Herpes, 1 mM sodium pyruvate, 1×Non-essential Amino Acids (Gibco) and 2 mM L-glutamine.
The cells were harvested by washing cultures with 10 ml Hank's Balanced Salt Solution (2×) and incubating with 0.125% Trypsin in Versene (0.02% EDTA) for approximately one minute. After the cells are visibly rounded and loosened from the flask, 9 ml of the above medium is added. The cells are transferred to a […] culture dish and syringed up and down through a 20 gauge needle to break up aggregated clumps of cells. Cell cultures are plated at 0.1×10^6 /ml and 0.075×10^6 /ml in two 24 well plates, respectively, aliquoting 1 ml cells/well. The cells are allowed to attach for 24 hours (48 hours for the lower density plate) before washing 2× with HBSS and refed with 1 ml of the above medium with 1% Cabosil delipidated serum instead of Fetal Bovine Serum. The cells are treated with the test compounds after 24 hours of exposure to the delipidated serum media.
Chemicals are routinely prepared as a 10 mM solution in 100% ethanol or dimethyl sulfoxide (DMSO). All test compounds are added at 50 μM, 25 μM, 10 μM, 1 μM at a final concentration of 0.45% solvent, 0.25% Bovine Serum Albumin (BSA) suspension per well. The solvent BSA is sonicated for 10 seconds to ensure maximum solubilization before addition to the cells. Control wells receive solvent/BSA at the same concentrations as the drug treated cultures. […]
The eluted sterols are dried under nitrogen gas and resuspended in 150 μL ethanol. […] The samples are counted on the dual label ^3 H:^14 C program on the Beckman scintillation counter Model LS 7800.
The incorporation of both radiolabeled precursors into sterols is compared between the treated and non-treated (control) cultures and expressed as "% control" for each precursor. […]

First: CC[C@@]12OC[C@H]([C@H](C)CC[C@H](C)C(C)C)[C@@]1(C)CCC1=C2CC[C@H]2C[C@@H](O)CC[C@]12C [Example 30 (Compound 81), 14α-Ethyl-15-oxa-ergost-8-en-3β-ol]
Second: C=C[C@@]12OC[C@H]([C@H](C)/C=C/[C@H](C)C(C)C)[C@@]1(C)CCC1=C2CC[C@H]2C[C@@H](O)CC[C@]12C [Example 29 (Compound 80), (22E)-15-Oxa-14α-vinyl-ergosta-8,22-dien-3β-ol]
The IC50 of the first is lower: 600 nM for the first, over 50000 nM for the second. The first is the more potent here.

Compound `C=C[C@@]12OC[C@H]([C@H](C)/C=C/[C@H](C)C(C)C)[C@@]1(C)CCC1=C2CC[C@H]2C(C)(C)[C@@H](O)CC[C@]12C` [Example 28 (Compound 78), (22E)-4,4-Dimethyl-15-oxa-14α-vinylergosta-8,22-dien-3β-ol] has an IC50 of 50 nM.
